Series [1] relates to murine Swiss albino fibroblast (3T3) cell line. The series can be described thus: Cell viability, NRU assay, 3T3. It is filed as cell-based. To be noted: Mus musculus, 24 h incubation, NRU endpoint. How it is done:
(§1) Two different endpoints, 3-(4,5-dimethyl-2-thiazolyl)-2,5-diphenyltetrazolium bromide (MTT) and neutral red uptake (NRU), were used to assess differences in cell-induced cytotoxicity. […] In addition, NRU evaluates the interaction of these drugs with the plasmatic membrane. Cell responses were determined from the MTT [16] and NRU [17] assays, using the two proposed cell lines. Cytotoxicity assays were performed at concentrations equal to 80 and 250 µg/mL. The IC50 value, referring to the half-maximal inhibitory concentration, was determined as a key parameter in cytotoxicity studies (Table 1). It plays a crucial role in evaluating cell viability and assessing cellular responses to various drugs or toxins. For cases where IC50 values were below 80 µg/mL, additional studies at lower concentrations were conducted to accurately determine these values. […] The selectivity index (SI), used as a measurement of action against the tumor cell line in comparison with a normal cell line, was also included.
(§2) • In Vitro Assay Using Human Erythrocytes • - Acquisition and Extraction of the Erythrocytes Human blood samples were obtained from the Banc de Sang i Teixits de Barcelona (Spain) from the Catalan Department of Health. Blood was deposited in tubes with the anticoagulant EDTA-K3. Blood samples were centrifuged at 3000 rpm and 4 °C for 10 min (Megafuge 2.0 R. Heraeus Instruments, Hanau, Germany) to induce sedimentation. Plasma was extracted with a Pasteur pipette. Next, the residual pellet was washed with PBS at pH 7.4. This procedure was repeated three times to remove residual leukocytes and platelets and to concentrate the erythrocytes. Following the last wash, the erythrocyte suspension was diluted (1:1) in PBS at pH 7.4 to obtain a suitable erythrocyte suspension (cell density of 8 × 10^9 cell/mL). • - Hemolysis Assay The hemolysis assay determined the capability of different compounds to induce the hemolysis of the erythrocyte membrane. Stock solutions of each compound at 1 mg/mL in PBS at pH 7.4 were prepared. Different volumes (10–80 μL) were placed in polystyrene tubes, and an aliquot of 25 µL of the erythrocyte suspensions was added to each tube. The final volume was 1 mL. The tubes were incubated at room temperature under rotatory conditions. Then, the tubes were centrifuged at 10,000 rpm for 5 min. The supernatants’ absorbance at 540 nm (Shimadzu UV-160A, Shimadzu, Duisburg, Germany) was compared with that of the positive (erythrocytes hemolyzed with distilled water) and negative (erythrocyte suspension in PBS at pH 7.4) controls. The degree of hemolysis was determined using the following equation: Hemolysis (%) = 100 × (Abs − Abs0)/(Abs100 − Abs0) where Abs, Abs0, and Abs100 are the absorbance of the test samples, of the suspension treated with isotonic phosphate–buffered saline (PBS), and of the suspension of complete hemolysis treated with distilled water, respectively. • In Vitro Essay Using Cell Cultures The murine Swiss albino fibroblasts (3T3) and the squamous cell carcinoma (A431) cell lines were obtained from Celltec UB. Cells were grown in DMEM medium (4.5 g/L glucose) supplemented with 10% (v/v) FBS, 2 mM L-glutamine, 100 U/mL penicillin, and 100 µg/mL streptomycin at 37 °C with 5% CO2. Cells were routinely cultured in 75 cm^2 culture flasks and were trypsinized using trypsin–EDTA when the cells reached approximately 80% confluence. The trypan blue assay, which allows for the direct identification and enumeration of the live (unstained) and dead (blue) cells in the cell population, was used to evaluate the viability of the cells in the cell suspension obtained. • - Cell Viability Assays Cell lines of 3T3 (1 × 10^5 cells/mL) and A431 (5 × 10^4 cells/mL) were grown at defined densities in the 60 central wells of a 96-well plate. The cells were incubated for 24 h in 5% CO2 at 37 °C. […]

The nature of series [2]: Hemolysis assay with human erythrocytes. It is filed as cell-based. The conditions noted are these: human, washed human erythrocyte suspension, pH 7.4; 10 µg/mL; read-out: degree of hemolysis. How it is done:
(§3) In this context, non-hemolytic compounds are essential, as they enhance the safety and efficacy of lactam-based drugs by reducing adverse effects while maintaining their antitumor activity. In accordance with EU regulations (ISO 10993-4), the assessment of the biological compatibility of new compounds that may come into contact with the blood necessitates in vitro hemocompatibility evaluations. In this study, the extent of hemolysis induced by the different compounds was assessed by incubating them with an erythrocyte suspension. The hemolytic response of compounds 1–10 was evaluated at two concentrations (10 and 80 µg/mL), the results of which are presented in Figure 3.
as §2, with “°C. Then, the spent medium was removed, and the cells were incubated for 24 h, with their corresponding compound solutions (1 mg/mL) previously diluted in a minimum amount of DMF (dimethylformamide) and then in DMEM medium supplemented with 5% FBS (100 µL) at the required concentration range (80 or 250 µg/mL).” for “°C.”

In the next series the test system is human erythrocytes. The series can be described thus: Hemolysis assay with human erythrocytes. Type of series: cell-based. The conditions noted are these: from 10 to 80 µg/mL. The procedure: as §3
as §2, with “°C. Then, the spent medium was removed, and the cells were incubated for 24 h, with their corresponding compound solutions (1 mg/mL) previously diluted in a minimum amount of DMF (dimethylformamide) and then in DMEM medium supplemented with 5% FBS (100 µL) at the required concentration range (80 or 250 µg/mL).” for “°C.”

Series [3] relates to murine Swiss albino fibroblast (3T3) cell line. The series can be described thus: Cell viability, MTT assay, 3T3. Type of series: cell-based. The conditions noted are these: Mus musculus, 24 h, 24 h incubation, MTT endpoint. How it is done:
as §1, §2
For orientation: Formazan colour is commonly taken as a measure of viable cells.

Series [4] has as its system A431 cell line (squamous cell carcinoma). The series can be described thus: Cell viability, MTT assay, A431. Type of series: cell-based. The conditions noted are these: Homo sapiens, A-431, 24 h, 24 h incubation, MTT endpoint, A431; read-out: IC50 (MTT) A431. The procedure:
as §1, §2

Series [5] shares this test system. Briefly: Cell viability, NRU assay, A431. It is filed as cell-based, human. How it is done:
as §1, §2

The subject of series [6] is squamous carcinoma cells (A431) in comparison with the fibroblast (3T3) cell line. Details: method as in PMID 38731527. The conditions noted are these: cited from earlier work.

Values after ≈ are worked out from the molar mass of the structure shown.

The term IC50 denotes the concentration that gives 50% inhibition.

Regarding `CC(C)(C)N1CC(CCl)C(Cl)(Cl)C1=O` (stereo not drawn) [Compound 2], the IC50 in series [1] was more than 250 µg/mL; in series [3], more than 250 µg/mL; in series [4], more than 250 µg/mL; in series [5] (Homo sapiens, A-431, 24 h, 24 h incubation, NRU endpoint, A431) it was 232 ± 4.23 µg/mL (≈ 896 µM). Besides, the hemolysis at 10 µg/mL in series [2] came to 0.02%. Further, in the series on human erythrocytes, the “change of hemolytic response as concentration increased” value was “three-”. In series [5] (250 µg/mL, 24 h, A431 vs 3T3, NRU), the “SI250, pseudo-selectivity index (NRU)” value was “highest SI250 values”. In addition, the “SI (NRU), selectivity index” value in series [5] (SI = IC50 (3T3)/IC50 (A431), NRU) is listed as more than 1.08. For the same compound, in series [6], the “IC50 (lowest values among five products)” value was 100 to 250 µg/mL.

The record behind these values is article PMC12030062, “From In Vitro Cytotoxicity to In Vivo Zebrafish Assays: A Study on 3,3-Dichloro β-, γ- and δ-Lactams and Their Biological Activity Profiles” (Pharmaceuticals, 2025).
